Laboratory results: PubChem BioAssay (NCI)
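In this assay, cells in 96-well plates receive the compound at five concentrations for 48 hours. Endpoints are linearly interpolated between the surrounding concentrations. GI50 marks 50% less growth. At the TGI there is no net growth.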

Columns and labels:
Experiment in all cases: DTP human tumour cell line panel, 48 h
[1] = test system: 786-0 renal
[2] = test system: A498 renal
[3] = test system: A549 NSCLC
[4] = test system: ACHN renal
[5] = test system: BT-549 breast
[6] = test system: CAKI-1 renal
[7] = test system: CCRF-CEM leukemia
[8] = test system: COLO 205 colon
[9] = test system: DU-145 prostate
[10] = test system: HCC-2998 colon
[11] = test system: HCT-116 colon
[12] = test system: HCT-15 colon
[13] = test system: HL-60(TB) leukemia
[14] = test system: HOP-62 NSCLC
[15] = test system: HOP-92 NSCLC
[16] = test system: HS 578T breast
[17] = test system: HT29 colon
[18] = test system: IGROV1 ovarian
[19] = test system: K-562 leukemia
[20] = test system: KM12 colon
[21] = test system: LOX IMVI melanoma
[22] = test system: M14 melanoma
[23] = test system: MALME-3M melanoma
[24] = test system: MCF7 breast
[25] = test system: MDA-MB-231 breast
[26] = test system: MDA-MB-435
[27] = test system: MOLT-4 leukemia
[28] = test system: NCI-H226 lung
[29] = test system: NCI-H23 lung
[30] = test system: NCI-H460 lung
[31] = test system: NCI-H522 lung
[32] = test system: NCI/ADR-RES ovarian
[33] = test system: OVCAR-3 ovarian
[34] = test system: OVCAR-4 ovarian
[35] = test system: OVCAR-5 ovarian
[36] = test system: OVCAR-8 ovarian
[37] = test system: PC-3 prostate
[38] = test system: RPMI-8226 leukemia
[39] = test system: RXF 393 renal
[40] = test system: SF-268 CNS
[41] = test system: SF-295 CNS
[42] = test system: SF-539 CNS
[43] = test system: SK-MEL-2 melanoma
[44] = test system: SK-MEL-28 melanoma
[45] = test system: SK-MEL-5 melanoma
[46] = test system: SK-OV-3 ovarian
[47] = test system: SN12C renal
[48] = test system: SNB-19 CNS
[49] = test system: SNB-75 CNS
[50] = test system: SR leukemia
[51] = test system: SW-620 colon
[52] = test system: T-47D breast
[53] = test system: TK-10 renal
[54] = test system: U251 CNS
[55] = test system: UACC-257 melanoma
[56] = test system: UACC-62 melanoma
[57] = test system: UO-31 renal
[58] = test system: EKVX NSCLC

CCCN(CCSSCCNc1nc(N(C)O)nc(N(C)O)n1)c1nc(N(C)O)nc(N(C)O)n1
GI50 [1]: 3.67 µM
TGI [1]: > 100 µM
GI50 [2]: 19.5 µM
TGI [2]: > 100 µM
GI50 [3]: 7.59 µM
TGI [3]: > 100 µM
GI50 [4]: 3.92 µM
TGI [4]: > 100 µM
GI50 [5]: 7.6 µM
TGI [5]: > 100 µM
GI50 [6]: 2.47 µM
TGI [6]: > 100 µM
GI50 [7]: 2.24 µM
TGI [7]: > 100 µM
GI50 [8]: 2.9 µM
TGI [8]: > 100 µM
GI50 [9]: 8.78 µM
TGI [9]: > 100 µM
GI50 [10]: 4.73 µM
TGI [10]: > 100 µM
GI50 [11]: 3.97 µM
TGI [11]: > 100 µM
GI50 [12]: 4.28 µM
TGI [12]: > 100 µM
GI50 [13]: 3.31 µM
TGI [13]: > 100 µM
GI50 [14]: 4.49 µM
TGI [14]: > 100 µM
GI50 [15]: 6.1 µM
TGI [15]: > 100 µM
GI50 [16]: 25.5 µM
TGI [16]: > 100 µM
GI50 [17]: 7.81 µM
TGI [17]: > 100 µM
GI50 [18]: 32.3 µM
TGI [18]: > 100 µM
GI50 [19]: 15.7 µM
TGI [19]: > 100 µM
GI50 [20]: 6.25 µM
TGI [20]: > 100 µM
GI50 [21]: 6.63 µM
TGI [21]: > 100 µM
GI50 [22]: 5.68 µM
TGI [22]: > 100 µM
GI50 [23]: 6.29 µM
TGI [23]: > 100 µM
GI50 [24]: 4.68 µM
TGI [24]: > 100 µM
GI50 [25]: 18.5 µM
TGI [25]: > 100 µM
GI50 [26]: 4.91 µM
TGI [26]: > 100 µM
GI50 [27]: 3.72 µM
TGI [27]: > 100 µM
GI50 [28]: 7.76 µM
TGI [28]: > 100 µM
GI50 [29]: 18 µM
TGI [29]: > 100 µM
GI50 [30]: 3.87 µM
TGI [30]: > 100 µM
GI50 [31]: 92.1 µM
TGI [31]: > 100 µM
GI50 [32]: 6.48 µM
TGI [32]: > 100 µM
GI50 [33]: 6.42 µM
TGI [33]: > 100 µM
GI50 [34]: 3.29 µM
TGI [34]: > 100 µM
GI50 [35]: > 100 µM
TGI [35]: > 100 µM
GI50 [36]: 5.26 µM
TGI [36]: > 100 µM
GI50 [37]: 82.4 µM
TGI [37]: > 100 µM
GI50 [38]: 4.48 µM
TGI [38]: > 100 µM
GI50 [39]: 81 µM
TGI [39]: > 100 µM
GI50 [40]: 6.37 µM
TGI [40]: > 100 µM
GI50 [41]: 3.56 µM
TGI [41]: 58.3 µM
GI50 [42]: 4.05 µM
TGI [42]: > 100 µM
GI50 [43]: 18.6 µM
TGI [43]: > 100 µM
GI50 [44]: 6.99 µM
TGI [44]: > 100 µM
GI50 [45]: 8.65 µM
TGI [45]: > 100 µM
GI50 [46]: 3.16 µM
TGI [46]: > 100 µM
GI50 [47]: 9.84 µM
TGI [47]: > 100 µM
GI50 [48]: 4.15 µM
TGI [48]: > 100 µM
GI50 [49]: 24.4 µM
TGI [49]: > 100 µM
GI50 [50]: 2.71 µM
TGI [50]: > 100 µM
GI50 [51]: 6.72 µM
TGI [51]: > 100 µM
GI50 [52]: 7.14 µM
TGI [52]: > 100 µM
GI50 [53]: 3.25 µM
TGI [53]: > 100 µM
GI50 [54]: 5.35 µM
TGI [54]: > 100 µM
GI50 [55]: 22.7 µM
TGI [55]: > 100 µM
GI50 [56]: 4.39 µM
TGI [56]: 28.9 µM
GI50 [57]: 5.19 µM
TGI [57]: > 100 µM

C=C1C[C@@]2(C)C(CC[C@]3(C)C2CC=C2C4CC(C)(C)C[C@@H](OC(=O)/C(C)=C\C)[C@]4(C(=O)O)CC[C@]23C)C(C)(C)C1=O (some centres undefined)
GI50 [1]: 2 µM
TGI [1]: 3.9 µM
GI50 [3]: 3.8 µM
TGI [3]: 25.8 µM
GI50 [4]: 2.04 µM
TGI [4]: 4.12 µM
GI50 [5]: 1.91 µM
TGI [5]: 3.68 µM
GI50 [6]: 1.88 µM
TGI [6]: 4.72 µM
GI50 [7]: 2.11 µM
TGI [7]: 22.9 µM
GI50 [8]: 3.59 µM
TGI [8]: 17.6 µM
GI50 [9]: 4.37 µM
TGI [9]: 16 µM
GI50 [58]: 4.95 µM
TGI [58]: 19 µM
GI50 [10]: 2.02 µM
TGI [10]: 4.52 µM
GI50 [11]: 1.81 µM
TGI [11]: 3.91 µM
GI50 [12]: 2.23 µM
TGI [12]: 7.88 µM
GI50 [13]: 2.56 µM
TGI [13]: 7.08 µM
GI50 [14]: 3.43 µM
TGI [14]: 22.3 µM
GI50 [15]: 2.34 µM
TGI [15]: 7.15 µM
GI50 [16]: 5.21 µM
TGI [16]: 34.4 µM
GI50 [17]: 2.55 µM
TGI [17]: 6.81 µM
GI50 [18]: 3.05 µM
TGI [18]: 10.1 µM
GI50 [19]: 2.45 µM
TGI [19]: 11.5 µM
GI50 [20]: 3.84 µM
TGI [20]: 15.9 µM
GI50 [22]: 2.39 µM
TGI [22]: 8.49 µM
GI50 [23]: 3.89 µM
TGI [23]: 15.6 µM
GI50 [24]: 4.06 µM
TGI [24]: 19.2 µM
GI50 [25]: 5.96 µM
TGI [25]: 31.4 µM
GI50 [26]: 2.83 µM
TGI [26]: 8.61 µM
GI50 [27]: 2.91 µM
TGI [27]: 24.8 µM
GI50 [28]: 2.23 µM
TGI [28]: 6.16 µM
GI50 [29]: 2.87 µM
TGI [29]: 11.1 µM
GI50 [30]: 3.22 µM
TGI [30]: 11 µM
GI50 [31]: 2.76 µM
TGI [31]: 10.1 µM
GI50 [32]: 3.45 µM
TGI [32]: 33.4 µM
GI50 [33]: 2.08 µM
TGI [33]: 5 µM
GI50 [34]: 4.76 µM
TGI [34]: 18.2 µM
GI50 [35]: 3.17 µM
TGI [35]: 10.3 µM
GI50 [36]: 3.75 µM
TGI [36]: 27.5 µM
GI50 [37]: 1.99 µM
TGI [37]: 5.94 µM
GI50 [38]: 1.42 µM
TGI [38]: 5.69 µM
GI50 [39]: 1.76 µM
TGI [39]: 3.57 µM
GI50 [40]: 6.76 µM
TGI [40]: 28 µM
GI50 [41]: 2.95 µM
TGI [41]: 11.1 µM
GI50 [42]: 2.75 µM
TGI [42]: 8.55 µM
GI50 [43]: 5.93 µM
TGI [43]: 24.4 µM
GI50 [44]: 2.32 µM
TGI [44]: 5.44 µM
GI50 [45]: 3.35 µM
TGI [45]: 11.2 µM
GI50 [46]: 14.3 µM
TGI [46]: 33.4 µM
GI50 [47]: 3.22 µM
TGI [47]: 15.2 µM
GI50 [48]: 4.65 µM
TGI [48]: 17.4 µM
GI50 [50]: 1.55 µM
TGI [50]: 8.92 µM
GI50 [51]: 2.74 µM
TGI [51]: 9.31 µM
GI50 [52]: 3.25 µM
TGI [52]: 15.2 µM
GI50 [53]: 4.57 µM
TGI [53]: 17.9 µM
GI50 [54]: 2.46 µM
TGI [54]: 6.83 µM
GI50 [55]: 3.53 µM
TGI [55]: 16.4 µM
GI50 [56]: 2.93 µM
TGI [56]: 10.3 µM
GI50 [57]: 1.89 µM
TGI [57]: 3.92 µM
